Results taken from patent US20120010205A1, “NOVEL QUINOLINE ESTERS USEFUL FOR TREATING SKIN DISORDERS” (Wyeth LLC, priority 2010, published 2012).

How the values were obtained:
human LXRβ = target: T1, human LXRβ (Homo sapiens, UniProt P55055); assay: Ligand-binding test procedure for human LXRβ (3H T0901317 tracer, flash plates); details: read-out: hLXRb binding IC50
T1 construct: made in house; host or cells: E. coli
T1 sequence (P55055 1-460): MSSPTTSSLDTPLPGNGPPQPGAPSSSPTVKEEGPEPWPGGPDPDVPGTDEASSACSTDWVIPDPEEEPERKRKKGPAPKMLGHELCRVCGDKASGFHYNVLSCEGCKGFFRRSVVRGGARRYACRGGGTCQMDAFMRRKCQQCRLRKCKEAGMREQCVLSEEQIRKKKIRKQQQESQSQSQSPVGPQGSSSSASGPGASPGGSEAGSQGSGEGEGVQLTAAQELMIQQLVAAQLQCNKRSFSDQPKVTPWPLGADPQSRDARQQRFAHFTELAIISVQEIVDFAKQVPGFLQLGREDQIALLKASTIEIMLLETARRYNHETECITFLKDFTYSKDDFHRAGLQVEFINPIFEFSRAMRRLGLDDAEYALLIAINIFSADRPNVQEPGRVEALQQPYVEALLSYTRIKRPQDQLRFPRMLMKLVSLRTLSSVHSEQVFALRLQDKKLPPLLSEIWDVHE
Method: LIGAND-BINDING TEST PROCEDURE FOR HUMAN LXRβ.
Buffer: 100 mM KCl, 100 mM TRIS (pH 7.4 at +4° C.), 8.6% glycerol, 0.1 mM PMSF*, 2 mM MTG*, 0.2% CHAPS (* not used in wash buffer)
Receptor source: E. coli extracted from cells expressing biotinylated hLXRβ. Extract was made in a similar buffer as above, but with 50 mM TRIS.
Washed streptavidin and coated flash plates with wash buffer. Diluted receptor extract to give Bmax˜4000 cpm and add to the wells. Wrapped the plates in aluminum foil and stored them at +4° C. overnight.
Made a dilution series in DMSO of the test ligands. Made a 5 nM solution of the radioactive tracer in buffer. Mixed 250 μL diluted tracer with 5 μL of the test ligand from each concentration of the dilution series. Washed the receptor-coated flash plates. Added 200 μL per well of the ligand/radiolabel mixture to the receptor-coated flash plates. Wrapped the plates in aluminum foil and incubate at +4° C. over night.
Aspirated wells, and washed the flashed plates. Sealed the plate. Measured the remaining radioactivity in the plate.

hLXRa = target: T2, hLXRa (Homo sapiens, UniProt Q13133); assay: hLXRa binding
T2 sequence (Q13133 1-447): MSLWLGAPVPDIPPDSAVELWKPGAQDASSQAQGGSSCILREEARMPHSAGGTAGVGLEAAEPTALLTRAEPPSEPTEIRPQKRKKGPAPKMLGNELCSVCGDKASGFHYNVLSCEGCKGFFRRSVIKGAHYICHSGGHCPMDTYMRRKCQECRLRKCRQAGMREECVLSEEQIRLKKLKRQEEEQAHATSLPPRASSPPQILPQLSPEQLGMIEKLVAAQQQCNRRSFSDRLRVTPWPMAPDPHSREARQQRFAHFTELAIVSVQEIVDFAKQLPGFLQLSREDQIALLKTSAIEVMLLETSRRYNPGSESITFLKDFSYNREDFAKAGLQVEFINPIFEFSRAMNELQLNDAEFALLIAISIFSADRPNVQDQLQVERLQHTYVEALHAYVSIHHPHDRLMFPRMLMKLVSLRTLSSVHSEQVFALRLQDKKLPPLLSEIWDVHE

ABCG1 [1] = assay: Gene regulation by LXR: ABCG1, human foreskin fibroblasts (serum-free); assay type: cell-based; details: Fibroblast
ABCG1 [2] = assay: Gene regulation by LXR: ABCG1, KERTr (serum-free); assay type: cell-based

Compound	IC50 (human LXRβ)	IC50 (hLXRa)	EC50 (ABCG1 [2])	EC50 (ABCG1 [1])
CC(C)c1cnc2c(Cl)cccc2c1-c1cccc(OC(=O)c2ccc(S(C)(=O)=O)cc2)c1 [Example 3, 3-(8-chloro-3-isopropylquinolin-4-yl)phenyl 4-(methylsulfonyl)benzoate]	17 nM	57 nM	1.18 nM	45 nM
CC(C)c1cnc2c(Cl)cccc2c1-c1cccc(OC(=O)c2ccccc2S(C)(=O)=O)c1 [Example 4, 3-(8-chloro-3-isopropylquinolin-4-yl)phenyl 2-(methylsulfonyl)benzoate]	> 1000 nM	> 1000 nM		
Cc1ccc(S(=O)(=O)N(C)C)cc1C(=O)Oc1cccc(-c2c(C(C)C)cnc3c(Cl)cccc23)c1 [Example 5]	25 nM	53 nM	1.62 nM	50 nM
CC(C)c1cnc2c(C(F)(F)F)cccc2c1-c1cccc(OC(=O)c2ccc(S(C)(=O)=O)cc2)c1 [Example 8, 3-[3-isopropyl-8-(trifluoromethyl)quinolin-4-yl]phenyl 4-(methylsulfonyl)benzoate]	12.5 nM	54 nM	1.9 nM	38 nM
CC(C)c1cnc2c(C(F)(F)F)cccc2c1-c1cccc(OC(=O)c2ccccc2S(C)(=O)=O)c1 [Example 9, 3-[3-isopropyl-8-(trifluoromethyl)quinolin-4-yl]phenyl 2-(methylsulfonyl)benzoate]	112 nM	256 nM		
Cc1ccc(S(=O)(=O)N(C)C)cc1C(=O)Oc1cccc(-c2c(C(C)C)cnc3c(C(F)(F)F)cccc23)c1 [Example 10]	24 nM	64 nM	0.53 nM	58 nM
Cc1cnc2c(C(F)(F)F)cccc2c1-c1cccc(C(=O)Oc2cccc(S(C)(=O)=O)c2)c1 [Example 12]	154 nM	544 nM		
CS(=O)(=O)c1cccc(C(=O)Oc2ccc(Cl)c(-c3ccnc4c(C(F)(F)F)cccc34)c2)c1 [Example 18, 4-chloro-3-[8-(trifluoromethyl)quinolin-4-yl]phenyl-3-(methylsulfonyl)benzoate]	13.8 nM	122 nM		
CS(=O)(=O)c1cccc(C(=O)Oc2cccc(-c3ccnc4c(C(F)(F)F)cccc34)c2)c1 [Example 21, 3-[8-(trifluoromethyl)quinolin-4-yl]phenyl 3-(methylsulfonyl)benzoate]	20 nM	120 nM	384 nM	634 nM
CS(=O)(=O)c1cccc(C(=O)Oc2cccc(-c3c(C#N)cnc4c(C(F)(F)F)cccc34)c2)c1 [Example 24, 3-[3-cyano-8-(trifluoromethyl)quinolin-4-yl]phenyl 3-(methylsulfonyl)benzoate]	33 nM	90 nM		
Cc1cnc2c(C(F)(F)F)cccc2c1-c1cccc(OC(=O)c2cccc(S(=O)(=O)N(C)C)c2)c1 [Example 25, 3-[3-methyl-8-(trifluoromethyl)quinolin-4-yl]phenyl 3-(dimethylsulfamoyl)benzoate]	14 nM	58 nM	42 nM	250 nM
CCS(=O)(=O)c1cccc(C(=O)Oc2cccc(-c3c(C)cnc4c(C(F)(F)F)cccc34)c2)c1 [Example 26]	8.6 nM	52 nM	250 nM	250 nM

These reach a lower IC50 (human LXRβ). Values come first.

IC50 (human LXRβ)	IC50 (hLXRa)	EC50 (ABCG1 [2])	Compound	EC50 (ABCG1 [1])
3.7 nM	16.2 nM	0.76 nM	CCS(=O)(=O)c1cccc(C(=O)Oc2cccc(-c3c(C(C)C)cnc4c(Cl)cccc34)c2)c1 [Example 1, 3-(8-chloro-3-isopromilquinolin-4-yl)phenyl 3-(ethylsulfonyl)benzoate]	59 nM
3.7 nM	11.7 nM	1.46 nM	Cc1ccc(S(C)(=O)=O)cc1C(=O)Oc1cccc(-c2c(C(C)C)cnc3c(Cl)cccc23)c1 [Example 2, 3-(8-chloro-3-isopropyiquinolin-4-yl)phenyl 2-methyl-5-(methylsulfonyl)benzoate]	33 nM
4 nM	16.3 nM	1.48 nM	CCS(=O)(=O)c1cccc(C(=O)Oc2cccc(-c3c(C(C)C)cnc4c(C(F)(F)F)cccc34)c2)c1 [Example 6, 3-[3-isopropyl-8-(trifluoromethyl)quinolin-4-yl]phenyl-3-(ethylsulfonyl)benzoate]	37 nM
3 nM	9.2 nM	3.34 nM	Cc1ccc(S(C)(=O)=O)cc1C(=O)Oc1cccc(-c2c(C(C)C)cnc3c(C(F)(F)F)cccc23)c1 [Example 7, 3-[3-isopropyl-8-(trifluoromethyl)quinolin-4-yl]phenyl-2-methyl-5-(methylsulfonyl)benzoate]	23 nM
3.5 nM	13.3 nM	73 nM	Cc1cnc2c(C(F)(F)F)cccc2c1-c1cccc(OC(=O)c2cccc(S(C)(=O)=O)c2)c1 [Example 11]	105 nM
3.4 nM	9 nM		CC(C)c1cnc2c(Cl)cccc2c1-c1cccc(OC(=O)c2cc(S(C)(=O)=O)ccc2Cl)c1 [Example 13, 3-(8-chloro-3-isopropylquinolin-4-yl)phenyl 2-chloro-5-(methylsulfonyl)benzoate]	
4.1 nM	17 nM		CC(C)c1cnc2c(C(F)(F)F)cccc2c1-c1cccc(OC(=O)c2cc(S(C)(=O)=O)ccc2Cl)c1 [Example 14, 3-[3-isopropyl-8-(trifluoromethyl)quinolin-4-yl]phenyl-2-chloro-5-(methylsulfonyl)benzoate]	
1.7 nM	3.5 nM	5.2 nM	CC(C)c1cnc2c(C(F)(F)F)cccc2c1-c1cccc(OC(=O)c2cccc(S(C)(=O)=O)c2)c1 [Example 15, 3-[3-isopropyl-8-(trifluoromethyl)quinolin-4-yl]phenyl 3-(methylsulfonyl)benzoate]	41 nM
2.2 nM	4.4 nM		CC(C)c1cnc2c(Cl)cccc2c1-c1cccc(OC(=O)c2cccc(S(C)(=O)=O)c2)c1 [Example 16, 3-[8-chloro-3-(1-methylethyl)quinolin-4-yl]phenyl 3-(methylsulfonyl)benzoate]	
3.7 nM	17 nM		Cc1cnc2c(Cl)cccc2c1-c1cccc(OC(=O)c2cccc(S(C)(=O)=O)c2)c1 [Example 17, 3-(8-chloro-3-methylquinolin-4-yl)phenyl 3-(methylsulfonyl) benzoate]	
2.2 nM	4 nM	12.5 nM	CCc1cnc2c(C(F)(F)F)cccc2c1-c1cccc(OC(=O)c2cccc(S(C)(=O)=O)c2)c1 [Example 19, 3-[3-ethyl-8-(trifluoromethyl)quinolin-4-yl]phenyl 3-(methylsulfonyl)benzoate]	36 nM
2 nM	2.9 nM	4.49 nM	CCCc1cnc2c(C(F)(F)F)cccc2c1-c1cccc(OC(=O)c2cccc(S(C)(=O)=O)c2)c1 [Example 20, 3-[3-propyl-8-(trifluoromethyl)quinolin-4-yl]phenyl 3-(methylsulfonyl)benzoate]	11 nM
2.3 nM	3.9 nM	9.15 nM	CS(=O)(=O)c1cccc(C(=O)Oc2cccc(-c3c(-c4ccccc4)cnc4c(C(F)(F)F)cccc34)c2)c1 [Example 22, 3-[3-phenyl-8-(trifluoromethyl)quinolin-4-yl]phenyl 3-(methylsulfonyl)benzoate]	9.9 nM
2.7 nM	5.8 nM	25 nM	CS(=O)(=O)c1cccc(C(=O)Oc2cccc(-c3c(Cc4ccccc4)cnc4c(C(F)(F)F)cccc34)c2)c1 [Example 23, 3-[3-benzyl-8-(trifluoromethyl)quinolin-4-yl]phenyl 3-(methylsulfonyl)benzoate]	16 nM
